Assay results from the NIST ThermoML archive (doi:10.1021/je049612f).
± gives the expanded uncertainty stated by the source.

Conditions: Gas, Vibrating wire viscometry

What does the source list for FS(F)(F)(F)(F)F [sulfur hexafluoride]?
viscosity (333.15 K, 506.6 kPa): 0.01693 ± 0.00091 mPa·s; viscosity (333.15 K, 547.64 kPa): 0.01694 ± 0.00091 mPa·s; viscosity (333.15 K, 590.65 kPa): 0.01695 ± 0.00091 mPa·s; viscosity (333.15 K, 636.15 kPa): 0.01697 ± 0.00091 mPa·s; viscosity (333.15 K, 671.18 kPa): 0.01698 ± 0.00091 mPa·s; viscosity (333.15 K, 717.74 kPa): 0.017 ± 0.00091 mPa·s; viscosity (333.15 K, 772.31 kPa): 0.01703 ± 0.00091 mPa·s; viscosity (333.15 K, 837.79 kPa): 0.01705 ± 0.00091 mPa·s; viscosity (333.15 K, 887.92 kPa): 0.01708 ± 0.00091 mPa·s; viscosity (333.15 K, 946.43 kPa): 0.0171 ± 0.00091 mPa·s; viscosity (333.15 K, 1025.7 kPa): 0.01715 ± 0.00091 mPa·s; viscosity (333.15 K, 1092.5 kPa): 0.01718 ± 0.00091 mPa·s; viscosity (333.15 K, 1167.4 kPa): 0.01723 ± 0.00091 mPa·s; viscosity (333.15 K, 1233.2 kPa): 0.01727 ± 0.00091 mPa·s; viscosity (333.15 K, 1307.8 kPa): 0.01732 ± 0.00091 mPa·s; viscosity (333.15 K, 1366.9 kPa): 0.01737 ± 0.00091 mPa·s; viscosity (333.15 K, 1419.7 kPa): 0.0174 ± 0.00091 mPa·s; viscosity (333.15 K, 1502.8 kPa): 0.01746 ± 0.00091 mPa·s; viscosity (333.15 K, 1566.4 kPa): 0.01751 ± 0.00091 mPa·s; viscosity (333.15 K, 1629.7 kPa): 0.01757 ± 0.00091 mPa·s; viscosity (333.15 K, 1705.8 kPa): 0.01763 ± 0.00091 mPa·s; viscosity (333.15 K, 1772.9 kPa): 0.01769 ± 0.00091 mPa·s; viscosity (333.15 K, 1853.5 kPa): 0.01778 ± 0.00091 mPa·s; viscosity (333.15 K, 1917.4 kPa): 0.01783 ± 0.00091 mPa·s; viscosity (333.15 K, 1967 kPa): 0.0179 ± 0.00091 mPa·s; viscosity (333.15 K, 2025.7 kPa): 0.01795 ± 0.00091 mPa·s; viscosity (333.15 K, 2294.7 kPa): 0.01828 ± 0.00092 mPa·s; viscosity (333.15 K, 2427.7 kPa): 0.01848 ± 0.00092 mPa·s; viscosity (333.15 K, 2519.2 kPa): 0.01862 ± 0.00092 mPa·s; viscosity (333.15 K, 2631.9 kPa): 0.0188 ± 0.00092 mPa·s; viscosity (333.15 K, 2766.3 kPa): 0.01904 ± 0.00092 mPa·s; viscosity (333.15 K, 2872 kPa): 0.01925 ± 0.00092 mPa·s; viscosity (333.15 K, 3008.3 kPa): 0.01955 ± 0.00093 mPa·s; viscosity (333.15 K, 3089.4 kPa): 0.01973 ± 0.00093 mPa·s; viscosity (333.15 K, 3195.2 kPa): 0.02001 ± 0.00093 mPa·s; viscosity (333.15 K, 3306.1 kPa): 0.02032 ± 0.00093 mPa·s; viscosity (333.15 K, 3398.7 kPa): 0.0206 ± 0.00093 mPa·s; viscosity (333.15 K, 3504 kPa): 0.02097 ± 0.00094 mPa·s; viscosity (333.15 K, 3605.1 kPa): 0.02135 ± 0.00094 mPa·s; viscosity (333.15 K, 3722 kPa): 0.02185 ± 0.00094 mPa·s; viscosity (333.15 K, 3815.4 kPa): 0.02229 ± 0.00095 mPa·s; viscosity (333.15 K, 3932.1 kPa): 0.02291 ± 0.00095 mPa·s; viscosity (333.15 K, 4050.8 kPa): 0.0237 ± 0.00096 mPa·s; viscosity (333.15 K, 4148.2 kPa): 0.02445 ± 0.00097 mPa·s; viscosity (333.15 K, 4239.9 kPa): 0.02524 ± 0.00099 mPa·s; viscosity (333.15 K, 4328.2 kPa): 0.02616 ± 0.00098 mPa·s; viscosity (333.15 K, 4406.9 kPa): 0.02715 ± 0.00099 mPa·s; viscosity (333.15 K, 4479.7 kPa): 0.02819 ± 0.001 mPa·s; viscosity (333.15 K, 4549.6 kPa): 0.02938 ± 0.0012 mPa·s; viscosity (333.15 K, 4612.3 kPa): 0.03054 ± 0.001 mPa·s; viscosity (333.15 K, 4671.8 kPa): 0.03186 ± 0.0013 mPa·s; viscosity (333.15 K, 4725.8 kPa): 0.03331 ± 0.0011 mPa·s; viscosity (333.15 K, 4776.6 kPa): 0.03476 ± 0.0012 mPa·s; viscosity (333.15 K, 4828.1 kPa): 0.03629 ± 0.0013 mPa·s; viscosity (333.15 K, 4880.1 kPa): 0.03801 ± 0.0011 mPa·s; viscosity (333.15 K, 4933.2 kPa): 0.03982 ± 0.0011 mPa·s; viscosity (333.15 K, 4991.6 kPa): 0.0419 ± 0.0012 mPa·s; viscosity (333.15 K, 5049 kPa): 0.04395 ± 0.0013 mPa·s; viscosity (333.15 K, 5109.4 kPa): 0.04603 ± 0.0012 mPa·s; viscosity (333.15 K, 5178.8 kPa): 0.04833 ± 0.0012 mPa·s; viscosity (333.15 K, 5254.9 kPa): 0.05072 ± 0.0012 mPa·s; viscosity (333.15 K, 5343.6 kPa): 0.05331 ± 0.0012 mPa·s; viscosity (333.15 K, 5447.5 kPa): 0.0561 ± 0.0012 mPa·s; viscosity (333.15 K, 5567.4 kPa): 0.05883 ± 0.0012 mPa·s; viscosity (333.15 K, 5709.9 kPa): 0.06196 ± 0.0013 mPa·s; viscosity (333.15 K, 5869.5 kPa): 0.06483 ± 0.0013 mPa·s; viscosity (333.15 K, 6098.2 kPa): 0.0687 ± 0.0013 mPa·s; viscosity (333.15 K, 6338.2 kPa): 0.07217 ± 0.0014 mPa·s; viscosity (333.15 K, 6627.7 kPa): 0.07584 ± 0.0014 mPa·s; viscosity (333.15 K, 6950.6 kPa): 0.07952 ± 0.0014 mPa·s; viscosity (333.15 K, 7378.3 kPa): 0.08395 ± 0.0015 mPa·s; viscosity (333.15 K, 7900 kPa): 0.08869 ± 0.0015 mPa·s; viscosity (333.15 K, 8519.8 kPa): 0.09355 ± 0.0016 mPa·s; viscosity (333.15 K, 9106.8 kPa): 0.09795 ± 0.0016 mPa·s; viscosity (333.15 K, 9802 kPa): 0.1027 ± 0.0016 mPa·s; viscosity (333.15 K, 10465 kPa): 0.1067 ± 0.0017 mPa·s; viscosity (333.15 K, 11412 kPa): 0.1122 ± 0.0018 mPa·s; viscosity (333.15 K, 12565 kPa): 0.1183 ± 0.0018 mPa·s; viscosity (350 K, 64.67 kPa): 0.01753 ± 0.00091 mPa·s; viscosity (350 K, 96.54 kPa): 0.01755 ± 0.00091 mPa·s; viscosity (350 K, 117.61 kPa): 0.01755 ± 0.00091 mPa·s; viscosity (350 K, 143.77 kPa): 0.01756 ± 0.00091 mPa·s; viscosity (350 K, 170.68 kPa): 0.01756 ± 0.00091 mPa·s; viscosity (350 K, 204.56 kPa): 0.01758 ± 0.00091 mPa·s; viscosity (350 K, 238.01 kPa): 0.01759 ± 0.00091 mPa·s
